Assay results published in ChEMBL document CHEMBL1201862, “PubChem BioAssay data set” (2004).
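96-well plates; 48 h exposure; 5 concentrations. Endpoints by linear interpolation between flanking doses. Not reached: highest tested concentration assigned. GI50: concentration for 50% inhibition of growth.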 Active and inactive are the calls of the source. Rule as the data show it: active = GI50 up to about 1.1 µM and inactive = higher.

What was measured:
Assay in all cases: NCI-60 cell line screen, 48 h
A549 = tested on: A549
CCRF-CEM = tested on: CCRF-CEM
COLO 205 = tested on: COLO 205
HCC 2998 = tested on: HCC 2998
HL-60 = tested on: HL-60
HOP-92 = tested on: HOP-92
IGROV-1 = tested on: IGROV-1
K562 = tested on: K562
MDA-MB-435 = tested on: MDA-MB-435
OVCAR-3 = tested on: OVCAR-3
OVCAR-5 = tested on: OVCAR-5
OVCAR-8 = tested on: OVCAR-8
PC-3 = tested on: PC-3
RPMI-8226 = tested on: RPMI-8226
SF-539 = tested on: SF-539
SNB-19 = tested on: SNB-19
SR = tested on: SR
UACC-257 = tested on: UACC-257
HCT-116 = tested on: HCT-116
SN12C = tested on: SN12C

Row | SMILES | GI50 (A549) | GI50 (CCRF-CEM) | GI50 (COLO 205) | GI50 (HCC 2998) | GI50 (HL-60) | GI50 (HOP-92) | GI50 (IGROV-1) | GI50 (K562) | GI50 (MDA-MB-435) | GI50 (OVCAR-3) | GI50 (OVCAR-5) | GI50 (OVCAR-8) | GI50 (PC-3) | GI50 (RPMI-8226) | GI50 (SF-539) | GI50 (SNB-19) | GI50 (SR) | GI50 (UACC-257) | GI50 (HCT-116) | GI50 (SN12C)
1 | CCOC(=O)c1csc(NC(=O)C(C)N2CCCCC2)n1 (stereo not given) | > 100 µM (inactive) | > 100 µM (inactive) | > 100 µM (inactive) | > 100 µM (inactive) | > 100 µM (inactive) | > 100 µM (inactive) | > 100 µM (inactive) | > 100 µM (inactive) | > 100 µM (inactive) | > 100 µM (inactive) | > 100 µM (inactive) | > 100 µM (inactive) | > 100 µM (inactive) | > 100 µM (inactive) | > 100 µM (inactive) | > 100 µM (inactive) | 2.51 µM (inactive) | > 100 µM (inactive) | – | –
2 | O=C(C1C(c2ccccc2)N1C(c1ccccc1)c1ccccc1)C1C(c2ccccc2)N1C(c1ccccc1)c1ccccc1 (stereo not given) | 39 µM (inactive) | 3.61 µM (inactive) | > 10 µM (inactive) | 17.7 µM (inactive) | 2.88 µM (inactive) | – | > 10 µM (inactive) | 3.66 µM (inactive) | 36.4 µM (inactive) | – | 32.1 µM (inactive) | 29.6 µM (inactive) | 23.9 µM (inactive) | 3.59 µM (inactive) | 20 µM (inactive) | 97.5 µM (inactive) | 3.51 µM (inactive) | 18.5 µM (inactive) | 5.08 µM (inactive) | 21.8 µM (inactive)
3 | Cn1c(=O)c2nc3c(=O)n(C)c(=O)n(CC(N)=O)c3nc2n(C)c1=O | – | > 100 µM (inactive) | > 100 µM (inactive) | > 100 µM (inactive) | > 100 µM (inactive) | > 100 µM (inactive) | > 100 µM (inactive) | > 100 µM (inactive) | > 100 µM (inactive) | > 100 µM (inactive) | > 100 µM (inactive) | > 100 µM (inactive) | > 100 µM (inactive) | > 100 µM (inactive) | > 100 µM (inactive) | > 100 µM (inactive) | > 100 µM (inactive) | > 100 µM (inactive) | > 100 µM (inactive) | > 100 µM (inactive)
4 | Cc1ccc2c(O)cc(-c3sccc3C)nc2n1 | 0.612 µM (active) | 0.635 µM (active) | 0.37 µM (active) | 1.02 µM (active) | 0.174 µM (active) | > 36.8 µM (inactive) | 0.625 µM (active) | 0.427 µM (active) | 0.131 µM (active) | 0.653 µM (active) | 1.67 µM (inactive) | 1.99 µM (inactive) | 0.426 µM (active) | 0.444 µM (active) | 0.474 µM (active) | 0.78 µM (active) | 0.122 µM (active) | – | 0.452 µM (active) | 1.67 µM (inactive)
5 | OCCN1c2ccccc2Sc2ccccc21 | > 10 µM (inactive) | – | > 10 µM (inactive) | > 10 µM (inactive) | > 10 µM (inactive) | > 10 µM (inactive) | – | > 10 µM (inactive) | > 10 µM (inactive) | > 10 µM (inactive) | > 10 µM (inactive) | > 10 µM (inactive) | > 10 µM (inactive) | > 10 µM (inactive) | > 10 µM (inactive) | > 10 µM (inactive) | > 10 µM (inactive) | > 10 µM (inactive) | > 10 µM (inactive) | > 10 µM (inactive)
6 | C=C[C@@](C)(/C=C/c1ccc(O)cc1)CCC=C(C)C [BAKUCHIOL] | 17.8 µM (inactive) | 14.8 µM (inactive) | 17.7 µM (inactive) | 20.6 µM (inactive) | 14.1 µM (inactive) | 16.5 µM (inactive) | 15.8 µM (inactive) | 15.7 µM (inactive) | 18.2 µM (inactive) | 18.3 µM (inactive) | 19.2 µM (inactive) | 16.9 µM (inactive) | 16.8 µM (inactive) | 14.9 µM (inactive) | – | 19.1 µM (inactive) | 16.5 µM (inactive) | 17.7 µM (inactive) | 18.1 µM (inactive) | 18.5 µM (inactive)
7 | C[C@]12CC[C@H](O)CC1=CC[C@@H]1[C@@H]2CC[C@]2(C)C(=O)CC[C@@H]12 [PRASTERONE] | > 100 µM (inactive) | – | > 100 µM (inactive) | > 100 µM (inactive) | – | – | – | – | > 100 µM (inactive) | > 100 µM (inactive) | > 100 µM (inactive) | > 100 µM (inactive) | > 100 µM (inactive) | > 100 µM (inactive) | > 100 µM (inactive) | > 100 µM (inactive) | > 100 µM (inactive) | > 100 µM (inactive) | > 100 µM (inactive) | > 100 µM (inactive)
8 | Cc1cc(C)c(/C=C2\C(=O)Nc3ccccc32)[nH]1 [SEMAXANIB] | > 65.3 µM (inactive) | > 100 µM (inactive) | > 100 µM (inactive) | 38.8 µM (inactive) | 7.28 µM (inactive) | 48.3 µM (inactive) | – | > 100 µM (inactive) | > 96.4 µM (inactive) | > 100 µM (inactive) | > 69 µM (inactive) | > 49.5 µM (inactive) | > 100 µM (inactive) | > 100 µM (inactive) | > 100 µM (inactive) | > 100 µM (inactive) | 17.9 µM (inactive) | > 100 µM (inactive) | 72.9 µM (inactive) | > 100 µM (inactive)
